Measurements as given in patent US4620014A, “2-furylbutyrolactones and methods for using same” (priority 1983, dated 1986).
Where “and” joins values, the source holds several entries; their conditions need not be identical. Identical values can stand only once. Like-named read-outs stand apart in the source and are kept apart here.

Legend:
[1] = system: spleen lymphocytes of BSA-immunized C57BL/6 mice
From the text: The effect of the compounds of this invention on the immune response to specific antigens involves immunization of mice with specific anitgens such as bovine serum albumin (BSA) or keyhole limpet hemocyanin (KLH). Following immunization, it is possible to assess the cell-mediated or humoral (antibody) immune response to these antigens by various methods:
(1) Lymphocyte stimulation assays can be performed using varying concentrations of the specific antigens as mitogens in the lymphocyte stimulation microculture system described above. The only difference is that the incubation period is extended to five days instead of three as for the polyclonal mitogens.
Mice of the C57BL/6 strain are given i.p. injections of either 50, 100, 200 or 400 mg/kg of Cpd. 1 or buffer for twelve days (days 1-12). An antigen, bovine serum albumin (BSA), is administered intraperitoneally with Freund's Complete Adjuvant (FCA) on days 1, 7 and 14. Blood samples are taken for assay of the antibody response on days 0, 5, 13, and 19.

[2] = system: L5178Y tumor cells; details: 100 mg/kg i.p., 7 days
Experimental: (§1) Ten days later the resultant tumor nodule, about 1 cm in size, is surgically excised. If the excision was successful, no subcutaneous tumors develop at the site of implantation. […] These mice are considered to be in the tumor dormant state.
(§2) The effect of Cpd. 1 on the emergence from the L5178Y tumor dormant state is studied by treating forty DBA/2 mice with Cpd. 1 after the mice have undergone the TDS inducing procedure. […] 1 at 100 mg/kg and the remaining twenty mice receive buffer only. A partial peritoneal lavage is performed twenty-five days after the last dose of Cpd. 1 and the peritoneal exudate fluid is plated out for determination of tumor cell numbers (tumor cell quantitative assay). Survival time is recorded out to 90 days after challenge with the viable L5178Y tumor cells. The percent mortality is calculated for each group.
(§3) The effect of Cpd. 1 on the emergence from the L5178Y tumor dormant state was studied by treating forty DBA/2 mice with Cpd. 1 after the mice had undergone the TDS inducing procedure. Two days after the mice were challenged with i.p. administration of 50,000 viable L5178Y tumor cells, twenty of these mice received seven consecutive days of i.p. treatment with Cpd. 1 at 100 mg/kg and the remaining twenty mice received buffer only. A partial peritoneal lavage was performed twenty-five days after the last dose of Cpd. 1 and the peritoneal exudate fluid was plated out for determination of tumor cell numbers (tumor cell quantitative assay). Survival time was recorded out to 114 days after challenge with the viable L5178Y tumor cells. The percent mortality was calculated for each group.

[3] = system: L5178Y tumor; details: 100 mg/kg i.p., 7 days
Experimental: as §1, §2, §3

[4] = system: C57BL/6 mice; details: 10 mice per dose
Experimental: Single dose LD50 in C57BL/6 mice for Cpd. 1 is determined following the method of Spearman and Karber described in Basic Exercises in Immunochemistry, 1979. Briefly, 0.5 ml of each dose is given to each of ten mice. The survivors are counted after 3 days and the LD50 is calculated using the following formula: [formula] where D=fold diferences between doses, R=total number dead, and N=total number of animals tested.

[5] = system: CD rats; details: 14 days
Experimental: (§4) Single oral dose LD50 in CD-1 mice and CD rats, obtained from Charles River U.K. Ltd., for Cpd. 1 is determined. […] Cpd. 1, dissolved in buffer, or just buffer is administered orally and the mice and rats are observed for 14 days after dosing. After 14 days, the animals are sacrified and necropsy is performed to check for gross evidence of toxicity.

[6] = system: CD-1 mice; details: 14 days
Experimental: as §4

Cc1ccc(C2(O)C(=O)OC3C(O)COC32O)o1.Cc1ccc(C2(O)C(=O)OC3C(O)COC32O)o1.O=C1CCC(=O)O1 (stereo not drawn) [Cpd. 1]
Lymphocyte Stimulation Index ([1]; 50 mg/kg i.p., day 13, BSA 0 μg/well): 16.5 | Lymphocyte Stimulation Index ([1]; 50 mg/kg i.p., day 13, BSA 0.01 μg/well): 19.9 | Lymphocyte Stimulation Index ([1]; 50 mg/kg i.p., day 13, BSA 0.1 μg/well): 23.1 | Lymphocyte Stimulation Index ([1]; 50 mg/kg i.p., day 13, BSA 0.5 μg/well): 22.9 | Lymphocyte Stimulation Index ([1]; 50 mg/kg i.p., day 13, BSA 1 μg/well): 18.2 | Lymphocyte Stimulation Index ([1]; 50 mg/kg i.p., day 19, BSA 0 μg/well): .26 | Lymphocyte Stimulation Index ([1]; 50 mg/kg i.p., day 19, BSA 0.01 μg/well): 2.33 | Lymphocyte Stimulation Index ([1]; 50 mg/kg i.p., day 19, BSA 0.1 μg/well): 2.27 | Lymphocyte Stimulation Index ([1]; 50 mg/kg i.p., day 19, BSA 0.5 μg/well): 2.37 | Lymphocyte Stimulation Index ([1]; 50 mg/kg i.p., day 19, BSA 1.0 μg/well): 2.63 | DNA synthesis compared to controls ([1]; 50 mg/kg, day 13): significant stimulation of DNA synthesis | DNA synthesis effect ([1]; 50 mg/kg, day 19): waned | Lymphocyte Stimulation Index ([1]; 100 mg/kg i.p., day 13, BSA 0 μg/well): 3.22 | Lymphocyte Stimulation Index ([1]; 100 mg/kg i.p., day 13, BSA 0.01 μg/well): 9.8 | Lymphocyte Stimulation Index ([1]; 100 mg/kg i.p., day 13, BSA 0.1 μg/well): 11.9 | Lymphocyte Stimulation Index ([1]; 100 mg/kg i.p., day 13, BSA 0.5 μg/well): 12.3 | Lymphocyte Stimulation Index ([1]; 100 mg/kg i.p., day 13, BSA 1 μg/well): 10.2 | Lymphocyte Stimulation Index ([1]; 100 mg/kg i.p., day 19, BSA 0 μg/well): 4.1 | Lymphocyte Stimulation Index ([1]; 100 mg/kg i.p., day 19, BSA 0.01 μg/well): 3.79 | Lymphocyte Stimulation Index ([1]; 100 mg/kg i.p., day 19, BSA 0.1 μg/well): 2.68 | Lymphocyte Stimulation Index ([1]; 100 mg/kg i.p., day 19, BSA 0.5 μg/well): 2.03 | Lymphocyte Stimulation Index ([1]; 100 mg/kg i.p., day 19, BSA 1.0 μg/well): .26 | Lymphocyte Stimulation Index ([1]; 200 mg/kg i.p., day 13, BSA 0 μg/well): 10.6 | Lymphocyte Stimulation Index ([1]; 200 mg/kg i.p., day 13, BSA 0.01 μg/well): 14.1 | Lymphocyte Stimulation Index ([1]; 200 mg/kg i.p., day 13, BSA 0.1 μg/well): 15.8 | Lymphocyte Stimulation Index ([1]; 200 mg/kg i.p., day 13, BSA 0.5 μg/well): 13.8 | Lymphocyte Stimulation Index ([1]; 200 mg/kg i.p., day 13, BSA 1 μg/well): 14.0 | Lymphocyte Stimulation Index ([1]; 200 mg/kg i.p., day 19, BSA 0 μg/well): 0.42 | Lymphocyte Stimulation Index ([1]; 200 mg/kg i.p., day 19, BSA 0.01 μg/well): 2.94 | Lymphocyte Stimulation Index ([1]; 200 mg/kg i.p., day 19, BSA 0.1 μg/well): 2.82 | Lymphocyte Stimulation Index ([1]; 200 mg/kg i.p., day 19, BSA 0.5 μg/well): 2.56 | Lymphocyte Stimulation Index ([1]; 200 mg/kg i.p., day 19, BSA 1.0 μg/well): 2.12 | Lymphocyte Stimulation Index ([1]; 400 mg/kg i.p., day 13, BSA 0 μg/well): 10.9 | Lymphocyte Stimulation Index ([1]; 400 mg/kg i.p., day 13, BSA 0.01 μg/well): 13.7 | Lymphocyte Stimulation Index ([1]; 400 mg/kg i.p., day 13, BSA 0.1 μg/well): 12.8 | Lymphocyte Stimulation Index ([1]; 400 mg/kg i.p., day 13, BSA 0.5 μg/well): 12.3 | Lymphocyte Stimulation Index ([1]; 400 mg/kg i.p., day 13, BSA 1 μg/well): 13.8 | Lymphocyte Stimulation Index ([1]; 400 mg/kg i.p., day 19, BSA 0 μg/well): 5.0 | Lymphocyte Stimulation Index ([1]; 400 mg/kg i.p., day 19, BSA 0.01 μg/well): 3.26 | Lymphocyte Stimulation Index ([1]; 400 mg/kg i.p., day 19, BSA 0.1 μg/well): 2.89 | Lymphocyte Stimulation Index ([1]; 400 mg/kg i.p., day 19, BSA 0.5 μg/well): 1.94 | Lymphocyte Stimulation Index ([1]; 400 mg/kg i.p., day 19, BSA 1.0 μg/well): 1.04 | numbers of tumor cells recovered versus controls [2]: significant reduction in the numbers of tumor cells | Frequency of mice, Treated Group ([2]; 1,000 to 100,000 tumor cells): 7 and 4 | % of Total, Treated Group ([2]; >100,000 tumor cells): 6% and 4.3% | Frequency of mice, Treated Group ([2]; >100,000 tumor cells): 1 | survival versus untreated controls [3]: significantly greater survival | % Survival ([3]; 90 days post-challenge): 55.6% | No. Survivors ([3]; 90 days post-challenge): 10 | % Survival ([3]; 114 days post-challenge): 82.6% | No. Survivors ([3]; 114 days post-challenge): 19 | Number Dead on Day 3 ([4]; single i.p. 1,000 mg/kg): 0 | Number Dead on Day 3 ([4]; single i.p. 2,000 mg/kg): 0 | Number Dead on Day 3 ([4]; single i.p. 4,000 mg/kg): 7 | Number Dead on Day 3 ([4]; single i.p. 8,000 mg/kg): 10 | Number Dead on Day 3 ([4]; single i.p. 16,000 mg/kg): 10 | deaths or signs of toxicity ([5]; single oral 5 g/kg): No deaths or signs of toxicity | LD50 ([5]; single oral dose): > 5000 mg/kg | deaths or signs of toxicity ([6]; single oral 5 g/kg): No deaths or signs of toxicity | LD50 ([6]; single oral dose): > 5000 mg/kg
